Results published in ChEMBL document CHEMBL4765487, “From a Designer Drug to the Discovery of Selective Cannabinoid Type 2 Receptor Agonists with Favorable Pharmacokinetic Profiles for the Treatment of Systemic Sclerosis” (J Med Chem, 2021).
Calls of active or inactive are those of the source. The calls are words filed in the database; no cut-off is given here.

Key:
in vitro [1] = settings: human, liver microsomes
[2] = Clearance in BALB/c mouse at 1 mg/kg, iv measured during 0.083 to 24 hrs post dose by LC-MS/MS analysis; assay type: ADME, organism-based; settings: in vivo, time 0.083-24 hrs
Mus musculus [3] = assay: Antifibrotic activity in BALB/c mouse model of BLM-induced systemic sclerosis assessed as reduction in skin thickness at 5 mg/kg, sc dosed once daily for 4 weeks by H and E staining based analysis; assay type: functional, organism-based
[4] = biological target: T1, Glucose-dependent insulinotropic receptor (Homo sapiens) (UniProt Q8TDV5); assay: Agonist activity at GPR119 (unknown origin) at 10 uM
T1 sequence (whole entry): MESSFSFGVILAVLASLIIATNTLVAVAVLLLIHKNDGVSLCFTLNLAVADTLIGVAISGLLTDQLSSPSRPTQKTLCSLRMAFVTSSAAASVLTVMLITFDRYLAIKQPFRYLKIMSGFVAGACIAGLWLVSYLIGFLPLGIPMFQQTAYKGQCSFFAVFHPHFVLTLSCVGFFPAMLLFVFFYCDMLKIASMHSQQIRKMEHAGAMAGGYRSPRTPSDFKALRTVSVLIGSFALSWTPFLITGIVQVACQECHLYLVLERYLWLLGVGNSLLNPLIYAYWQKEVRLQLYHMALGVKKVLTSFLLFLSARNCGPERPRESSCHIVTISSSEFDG

CHO = assay: Effect on ERK1/2 Thr202/Tyr204 phosphorylation in CHO cells at 0.1 to 10 uM incubated for 15 mins by Western blot analysis; assay type: functional, cell-based; settings: Cricetulus griseus, dose 0.1-10 µM
Homo sapiens = species on record: Homo sapiens; assay: Selectivity index, ratio of EC50 for agonist activity at human CB1 receptor expressing CHO cells co-expressing Galpha16 by calcium mobilization assay to EC50 for agonist activity at human CB2 receptor expressing CHO cells co-expressing Galpha16 by calcium mobilization assay
[5] = Half life in BALB/c mouse at 1 mg/kg, iv measured during 0.083 to 24 hrs post dose by LC-MS/MS analysis; assay type: ADME, organism-based; settings: in vivo, time 0.083-24 hrs
[6] = Oral bioavailability in BALB/c mouse at 5 mg/kg measured during 0.083 to 24 hrs post dose by LC-MS/MS analysis; assay type: ADME, organism-based; settings: in vivo, time 0.083-24 hrs
Cannabinoid receptor 2 [7] = biological target: T2, Cannabinoid receptor 2 (Homo sapiens, UniProt P34972); assay: Agonist activity at human CB2 receptor expressed in CHO cells assessed as increase in ERK1/2 Thr202/Tyr204 phosphorylation at 10 uM incubated for 15 mins in presence of CB2 antagonist AM630 by Western blot analysis; assay type: cell-based
T2 sequence (P34972 whole entry): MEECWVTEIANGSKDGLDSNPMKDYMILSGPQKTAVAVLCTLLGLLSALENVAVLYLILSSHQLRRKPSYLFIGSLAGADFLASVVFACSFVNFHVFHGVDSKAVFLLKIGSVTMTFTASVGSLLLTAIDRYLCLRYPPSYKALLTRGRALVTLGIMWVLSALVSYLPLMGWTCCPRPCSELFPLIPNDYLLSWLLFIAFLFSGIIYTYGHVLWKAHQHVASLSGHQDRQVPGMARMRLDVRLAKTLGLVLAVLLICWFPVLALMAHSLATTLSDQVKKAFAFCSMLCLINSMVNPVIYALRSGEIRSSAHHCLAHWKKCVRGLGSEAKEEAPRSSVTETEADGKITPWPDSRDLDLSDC

[8] = Volume of distribution in BALB/c mouse at 5 mg/kg, po measured during 0.083 to 24 hrs post dose by LC-MS/MS analysis; assay type: ADME, organism-based; settings: in vivo, time 0.083-24 hrs
Mus musculus [9] = assay: Antifibrotic activity in BALB/c mouse model of BLM-induced systemic sclerosis assessed as reduction in TNF-alpha mRNA expression at 1 to 5 mg/kg, sc dosed once daily for 4 weeks by quantitative real-time PCR analysis; assay type: functional, organism-based; settings: dose 1-5 mg/kg
[10] = biological target: T1, Glucose-dependent insulinotropic receptor (Homo sapiens); assay: Antagonist activity at GPR119 (unknown origin) at 10 uM
[11] = biological target: Prostaglandin E2 receptor EP4 subtype (Homo sapiens) (UniProt P35408); assay: Agonist activity at EP4 (unknown origin) at 10 uM
Chain of Prostaglandin E2 receptor EP4 subtype (Homo sapiens) (P35408 whole entry): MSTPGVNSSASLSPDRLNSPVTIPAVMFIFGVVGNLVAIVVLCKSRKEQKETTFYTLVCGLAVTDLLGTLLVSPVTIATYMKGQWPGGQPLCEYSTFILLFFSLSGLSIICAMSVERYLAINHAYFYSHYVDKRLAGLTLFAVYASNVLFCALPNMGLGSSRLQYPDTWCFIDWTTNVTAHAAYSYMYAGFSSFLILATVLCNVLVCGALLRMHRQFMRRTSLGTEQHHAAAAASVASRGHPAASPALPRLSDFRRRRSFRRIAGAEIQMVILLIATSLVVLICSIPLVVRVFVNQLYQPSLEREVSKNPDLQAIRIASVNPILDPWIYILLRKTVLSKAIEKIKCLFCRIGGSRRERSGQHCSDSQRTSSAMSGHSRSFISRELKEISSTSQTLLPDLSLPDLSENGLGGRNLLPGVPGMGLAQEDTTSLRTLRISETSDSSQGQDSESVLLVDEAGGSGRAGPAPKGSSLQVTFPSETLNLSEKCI

Cannabinoid receptor 2 [12] = biological target: T2, Cannabinoid receptor 2; assay: Agonist activity at human CB2 receptor expressing CHO cells co-expressing Galpha16 by calcium mobilization assay; assay type: functional, cell-based
Cannabinoid receptor 2 [13] = biological target: T2, Cannabinoid receptor 2; assay: Agonist activity at human CB2 receptor expressed in CHO cells assessed as increase in ERK1/2 Thr202/Tyr204 phosphorylation at 0.1 to 10 uM incubated for 15 mins by Western blot analysis; assay type: cell-based; settings: filed as agonist, dose 0.1-10 µM
[14] = AUC (0 to infinity) in BALB/c mouse at 5 mg/kg, po measured during 0.083 to 24 hrs post dose by LC-MS/MS analysis; assay type: ADME, organism-based; design: route oral, dose 5 mg/kg, time 0.083-24 hrs; settings: in vivo
Cannabinoid receptor 1 = Cannabinoid receptor 1 (Homo sapiens, UniProt P21554); assay: Agonist activity at human CB1 receptor expressing CHO cells co-expressing Galpha16 by calcium mobilization assay; assay type: functional, cell-based
Chain of Cannabinoid receptor 1 (P21554 whole entry): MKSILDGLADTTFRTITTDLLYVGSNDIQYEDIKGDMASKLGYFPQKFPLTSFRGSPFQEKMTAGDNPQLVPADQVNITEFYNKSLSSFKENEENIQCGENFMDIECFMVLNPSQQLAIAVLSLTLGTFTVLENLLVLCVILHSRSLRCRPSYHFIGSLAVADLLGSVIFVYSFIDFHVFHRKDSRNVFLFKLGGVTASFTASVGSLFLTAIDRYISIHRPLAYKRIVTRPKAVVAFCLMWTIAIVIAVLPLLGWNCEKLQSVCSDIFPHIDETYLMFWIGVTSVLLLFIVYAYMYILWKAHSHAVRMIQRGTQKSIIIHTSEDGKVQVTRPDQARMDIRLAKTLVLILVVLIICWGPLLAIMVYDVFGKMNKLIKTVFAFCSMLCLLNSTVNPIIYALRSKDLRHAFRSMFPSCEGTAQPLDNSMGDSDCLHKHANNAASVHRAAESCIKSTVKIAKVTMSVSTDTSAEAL

[15] = Cmax in BALB/c mouse at 5 mg/kg, po measured during 0.083 to 24 hrs post dose by LC-MS/MS analysis; assay type: ADME, organism-based; design: route oral, time 0.083-24 hrs, dose 5 mg/kg; settings: in vivo
in vitro [16] = settings: human, liver microsomes; remark: listed apart in the source
Description: Half life in human liver microsomes at 1 uM in presence of NADPH by LC-MS/MS analysis

[17] = Volume of distribution in BALB/c mouse at 1 mg/kg, iv measured during 0.083 to 24 hrs post dose by LC-MS/MS analysis; assay type: ADME, organism-based; settings: in vivo, time 0.083-24 hrs
in vitro [18] = settings: human, liver
[19] = Cmax in BALB/c mouse at 1 mg/kg, iv measured during 0.083 to 24 hrs post dose by LC-MS/MS analysis; assay type: ADME, organism-based; design: route intravenous, time upper 24 hrs, dose 1 mg/kg, time lower 0.083 hrs; settings: in vivo
Cannabinoid receptor 2 [20] = biological target: T2, Cannabinoid receptor 2; assay: Agonist activity at human CB2 receptor expressing CHO cells co-expressing Galpha16 in presence of CB2 antagonist AM630 by calcium mobilization assay; assay type: functional, cell-based
Mus musculus [21] = assay: Antifibrotic activity in BALB/c mouse model of BLM-induced systemic sclerosis assessed as reduction in Col1alpha mRNA expression at 1 to 5 mg/kg, sc dosed once daily for 4 weeks by quantitative real-time PCR analysis; assay type: functional, organism-based; settings: dose 1-5 mg/kg
[22] = biological target: T3, Probable G-protein coupled receptor 132 (Homo sapiens) (UniProt Q9UNW8); assay: Agonist activity at GPR132 (unknown origin) at 10 uM
T3 sequence (whole entry): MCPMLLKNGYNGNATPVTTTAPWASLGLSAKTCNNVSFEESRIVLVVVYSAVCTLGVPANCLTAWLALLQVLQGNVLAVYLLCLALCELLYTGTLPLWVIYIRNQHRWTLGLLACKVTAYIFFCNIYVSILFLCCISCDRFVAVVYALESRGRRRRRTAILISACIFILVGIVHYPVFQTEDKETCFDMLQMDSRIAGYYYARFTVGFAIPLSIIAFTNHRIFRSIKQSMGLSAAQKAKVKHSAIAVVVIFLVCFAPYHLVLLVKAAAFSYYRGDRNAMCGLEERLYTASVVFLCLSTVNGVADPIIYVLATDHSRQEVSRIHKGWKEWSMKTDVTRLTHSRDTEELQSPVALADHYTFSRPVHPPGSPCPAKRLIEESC

[23] = biological target: Prostaglandin E2 receptor EP4 subtype (Homo sapiens) (UniProt P35408); assay: Agonist activity at EP2 (unknown origin) at 10 uM
[24] = biological target: T3, Probable G-protein coupled receptor 132 (Homo sapiens); assay: Antagonist activity at GPR132 (unknown origin) at 10 uM
Cannabinoid receptor 2 [25] = biological target: T2, Cannabinoid receptor 2; assay: Agonist activity at human CB2 receptor expressed in HEK293 cells assessed as inhibition of forskolin-induced cAMP production incubated for 15 mins by cAMP HTRF assay; assay type: functional, cell-based
[26] = Half life in BALB/c mouse at 5 mg/kg, po measured during 0.083 to 24 hrs post dose by LC-MS/MS analysis; assay type: ADME, organism-based; settings: in vivo, time 0.083-24 hrs
[27] = Toxicity in BALB/c mouse model of BLM-induced systemic sclerosis assessed as effect on body weight at 1 to 5 mg/kg, sc dosed once daily for 4 weeks; assay type: organism-based; settings: in vivo, 672 h, dose 1-5 mg/kg
[28] = biological target: Prostaglandin E2 receptor EP4 subtype (Homo sapiens) (UniProt P35408); assay: Antagonist activity at EP4 (unknown origin) at 10 uM

CC(C)(CO)NC(=O)c1cc(C(C)(C)C)n(-c2ccc(C(F)(F)F)cn2)n1
microsomal CLint at 1 µM (in vitro [1]): 12.3 µL/min/mg
clearance [2]: 40 mL/min/kg
Activity (Mus musculus [3]): Active
Activity [4]: inactive
Activity (CHO): inactive
Ratio EC50 (Homo sapiens): > 100
half-life [5]: 1.32 h
bioavailability [6]: 79.5%
Activity (Cannabinoid receptor 2 [7]): inactive
Vd [8]: 9.2 L/kg
Activity (Mus musculus [9]): Active
Activity [10]: inactive
Activity [11]: inactive
EC50 (Cannabinoid receptor 2 [12]): 15.2 nM
Activity (Cannabinoid receptor 2 [13]): Active
AUC(0-inf) [14]: 1670 ng·h/mL
EC50 (Cannabinoid receptor 1): 1840 nM
Cmax [15]: 603 ng/mL
half-life at 1 µM (in vitro [16]): 1.88 h
Vd [17]: 4.5 L/kg
CLint scaled at 1 µM (in vitro [18]): 11.1 mL/min/kg
Cmax [19]: 959 ng/mL
Activity (Cannabinoid receptor 2 [20]): inactive
Activity (Mus musculus [21]): Active
Activity [22]: inactive
Activity [23]: inactive
Activity [24]: inactive
EC50 (Cannabinoid receptor 2 [25]): 10.7 nM
half-life [26]: 2.18 h
Activity [27]: Non-Toxic
Activity [28]: inactive
